Measurements: patent US20260216347A1, “Substituted Imidazo-Based Compounds as Ligand Directed Degraders of IRAK3” (Celgene Corporation, priority 2022, published 2026)

Each compound was assayed against T1, IRAK3 (Homo sapiens, UniProt Q9Y616) (assay: IRAK endogenous HTRF degradation assay (Total-IRAK3 HTRF kit)). Details: overnight incubation, lowest percentage of protein remaining.
T1 construct: IRAK Endogenous HTRF Degradation Assay; endogenous in cells
T1 sequence (Q9Y616 1-596): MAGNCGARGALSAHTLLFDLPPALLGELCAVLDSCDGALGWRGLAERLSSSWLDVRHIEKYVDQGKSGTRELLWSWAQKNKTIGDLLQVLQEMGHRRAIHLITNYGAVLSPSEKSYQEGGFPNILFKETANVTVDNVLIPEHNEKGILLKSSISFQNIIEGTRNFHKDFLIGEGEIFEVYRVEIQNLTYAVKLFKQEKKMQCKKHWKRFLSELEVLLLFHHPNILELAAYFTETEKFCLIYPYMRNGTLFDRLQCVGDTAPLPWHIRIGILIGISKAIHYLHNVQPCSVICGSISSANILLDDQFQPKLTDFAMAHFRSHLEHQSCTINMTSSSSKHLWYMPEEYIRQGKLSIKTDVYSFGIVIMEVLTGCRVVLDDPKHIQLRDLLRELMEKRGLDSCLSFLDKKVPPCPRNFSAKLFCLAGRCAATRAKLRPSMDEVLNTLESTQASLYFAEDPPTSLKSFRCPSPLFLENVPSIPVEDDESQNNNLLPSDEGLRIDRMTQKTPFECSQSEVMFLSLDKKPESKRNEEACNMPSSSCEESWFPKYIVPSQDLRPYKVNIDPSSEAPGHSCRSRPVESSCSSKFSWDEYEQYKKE
Assay type: cell-based
In short: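 Cells (~50 k) incubated overnight with 3-fold serial dilutions of compound, then lysed; total IRAK3 read by HTRF (665/615 nm ratio ×10,000), normalized to DMSO as 100%. EC50 from four-parameter logistic fit; Dmax = 100 − Ymin (lowest % protein remaining); DC50 = concentration giving 50% degradation.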

IRAK3 HTRF degradation Ymin [%] | SMILES
27 | Cc1cccc(-c2cnc(Nc3cnn(C4CCN(CC(=O)N5CCN(c6ccc7c(c6)C(=O)N(C6CCC(=O)NC6=O)C7=O)CC5)CC4)c3)c3nccn23)c1 (centres unmarked) [Compound 1, 2-(2,6-dioxopiperidin-3-yl)-5-(4-(2-(4-(4-((5-(m-tolyl)imidazo[1,2-a]pyrazin-8-yl)amino)-1H-pyrazol-1-yl)piperidin-1-yl)acetyl)piperazin-1-yl)isoindoline-1,3-dione]
11 | Cc1cccc(-c2cnc(Nc3cnn(C4CCN(CCCCN5CCN(c6ccc(C7CCC(=O)NC7=O)cc6)CC5)CC4)c3)c3nccn23)c1 (centres unmarked) [Compound 3, 3-(4-(4-(4-(4-(4-((5-(m-tolyl)imidazo[1,2-a]pyrazin-8-yl)amino)-1H-pyrazol-1-yl)piperidin-1-yl)butyl)piperazin-1-yl)phenyl) piperidine-2,6-dione]
18 | Cc1cccc(-c2cnc(Nc3cnn(C4CCN(CCN5CCN(c6ccc7c(c6)C(=O)N(C6CCC(=O)NC6=O)C7=O)CC5)CC4)c3)c3nccn23)c1 (centres unmarked) [Compound 2, 2-(2,6-dioxopiperidin-3-yl)-5-(4-(2-(4-(4-((5-(m-tolyl)imidazo[1,2-a]pyrazin-8-yl)amino)-1H-pyrazol-1-yl)piperidin-1-yl)ethyl)piperazin-1-yl)isoindoline-1,3-dione]
40 | Cc1cc(-c2cnc(Nc3cnn(C4CCN(CCN5CCN(c6cccc(C7CCC(=O)NC7=O)c6)CC5)CC4)c3)c3nccn23)c(F)cc1F (centres unmarked) [Compound 31, 3-(3-(4-(2-(4-(4-((5-(2,4-difluoro-5-methylphenyl)imdazo [1,2-a]pyrazin-8-yl)amino)-1H-pyrazol-1-yl)piperidin-1-yl)ethyl)piperazin-1-yl)phenyl) piperidine-2,6-dione]
20 | Cc1cc(-c2cnc(Nc3cnn(C4CCN(CC(=O)N5CCN(c6ccc7c(c6)C(=O)N(C6CCC(=O)NC6=O)C7)CC5)CC4)c3)c3nccn23)c(F)cc1F (centres unmarked) [Compound 18, 3-(6-(4-(2-(4-(4-((5-(2,4-difluoro-5-methylphenyl)imidazo[1,2-a]pyrazin-8-yl)amino)-1H-pyrazol-1-yl)piperidin-1-yl)acetyl)piperazin-1-yl)-1-oxoisoindolin-2-yl)piperidine-2,6-dione]
18 | Cc1cccc(-c2cnc(Nc3cnn(C4CCN(CC(=O)N5CCN(c6ccc7c(c6)CN(C6CCC(=O)NC6=O)C7=O)CC5)CC4)c3)c3nccn23)c1 (centres unmarked) [Compound 19, 3-(1-oxo-5-(4-(2-(4-(4-((5-(m-tolyl)imidazo[1,2-a]pyrazin-8-yl)amino)-1H-pyrazol-1-yl)piperidin-1-yl)acetyl)piperazin-1-yl)isoindolin-2-yl)piperidine-2,6-dione]
11 | O=C1CCC(c2ccc(N3CCN(CCN4CCC(n5cc(Nc6ncc(-c7cccc(F)c7)n7ccnc67)cn5)CC4)CC3)cc2)C(=O)N1 (centres unmarked) [Compound 80, 3-(4-(4-(2-(4-(4-((5-(3-fluorophenyl)imidazo [1,2-a]pyrazin-8-yl)amino)-1H-pyrazol-1-yl)piperidin-1-yl)ethyl)piperazin-1-yl)phenyl) piperidine-2,6-dione]
14 | Cc1cc(-c2cnc(Nc3cnn(C4CCN(CC(=O)N5CCN(c6ccc7c(c6)CN(C6CCC(=O)NC6=O)C7=O)CC5)CC4)c3)c3nccn23)c(F)cc1F (centres unmarked) [Compound 10, 3-(5-(4-(2-(4-(4-((5-(2,4-difluoro-5-methylphenyl)imidazo[1,2-a]pyrazin-8-yl)amino)-1H-pyrazol-1-yl)piperidin-1-yl)acetyl)piperazin-1-yl)-1-oxoisoindolin-2-yl)piperidine-2,6-dione]
17 | Cc1cccc(-c2cnc(Nc3cnn(C4CCN(CCCN5CCN(c6ccc(C7CCC(=O)NC7=O)cc6)CC5)CC4)c3)c3nccn23)c1 (centres unmarked) [Compound 4, 3-(4-(4-(3-(4-(4-((5-(m-tolyl)imidazo[1,2-a]pyrazin-8-yl)amino)-1H-pyrazol-1-yl)piperidin-1-yl)propyl)piperazin-1-yl)phenyl) piperidine-2,6-dione]

More lines, now with the values behind:

SMILES | IRAK3 HTRF degradation Ymin [%]
Cc1cc(-c2ccc(Nc3cnn(C4CCN(CCN5CCN(c6ccc(C7CCC(=O)NC7=O)cc6)CC5)CC4)c3)c3nccn23)c(F)cc1F (centres unmarked) [Compound 12, 3-(4-(4-(2-(4-(4-((5-(2,4-difluoro-5-methylphenyl)imdazo [1,2-a]pyridin-8-yl)amino)-1H-pyrazol-1-yl)piperidin-1-yl)ethyl)piperazin-1-yl)phenyl) piperidine-2,6-dione] | 13
Cc1cc(-c2cnc(Nc3cnn([C@H]4CC[C@H](CCN5CCN(c6ccc([C@]7(C)CCC(=O)NC7=O)cc6)CC5)CC4)c3)c3nccn23)c(F)cc1F [Compound 82, (S)-3-(4-(4-(2-((trans)-4-(4-((5-(2,4-difluoro-5-methylphenyl)imidazo[1,2-a]pyrazin-8-yl)amino)-1H-pyrazol-1-yl)cyclohexyl)ethyl)piperazin-1-yl)phenyl)-3-methylpiperidine-2,6-dione] | 40
Cc1cc(-c2cnc(Nc3cnn([C@H]4CC[C@H](CCN5CCN(c6ccc(C7CCC(=O)NC7=O)cc6)CC5)CC4)c3)c3nccn23)c(F)cc1F (stereo partly drawn) [Compound 11, 3-(4-(4-(2-((trans)-4-(4-((5-(2,4-difluoro-5-methylphenyl)imidazo[1,2-a]pyrazin-8-yl)amino)-1H-pyrazol-1-yl)cyclohexyl)ethyl)piperazin-1-yl)phenyl)piperidine-2,6-dione] | 12
Cc1cc(-c2cnc(Nc3cnn([C@H]4CC[C@@H](CCN5CCN(c6ccc(C7CCC(=O)NC7=O)cc6)CC5)CC4)c3)c3nccn23)c(F)cc1F (stereo partly drawn) [Compound 14, 3-(4-(4-(2-((cis)-4-(4-((5-(2,4-difluoro-5-methylphenyl)imidazo[1,2-a]pyrazin-8-yl)amino)-1H-pyrazol-1-yl)cyclohexyl)ethyl)piperazin-1-yl)phenyl) piperidine-2,6-dione] | 13
Cc1cc(-c2cnc(Nc3cnn([C@H]4CC[C@H](CCN5CCN(c6ccc([C@@]7(C)CCC(=O)NC7=O)cc6)CC5)CC4)c3)c3nccn23)c(F)cc1F [Compound 81, (R)-3-(4-(4-(2-((trans)-4-(4-((5-(2,4-difluoro-5-methylphenyl)imidazo[1,2-a]pyrazin-8-yl)amino)-1H-pyrazol-1-yl)cyclohexyl)ethyl)piperazin-1-yl)phenyl)-3-methylpiperidine-2,6-dione] | 7.8
Cc1cc(-c2cnc(Nc3cnn([C@H]4CC[C@@H](CN5CCN(c6ccc(C7CCC(=O)NC7=O)cc6)CC5)CC4)c3)c3nccn23)c(F)cc1F (relative stereo) [Compound 71, 3-(4-(4-(((cis)-4-(4-((5-(2,4-difluoro-5-methylphenyl)imidazo[1,2-a]pyrazin-8-yl)amino)-1H-pyrazol-1-yl)cyclohexyl)methyl)piperazin-1-yl)phenyl) piperidine-2,6-dione] | 13
Cc1cc(-c2cnc(Nc3cnn(C4CCN(CCN5CCN(c6ccc([C@]7(C)CCC(=O)NC7=O)cc6)CC5)CC4)c3)c3nccn23)c(F)cc1F [Compound 76, (S)-3-(4-(4-(2-(4-(4-((5-(2,4-difluoro-5-methylphenyl)imdazo [1,2-a]pyrazin-8-yl)amino)-1H-pyrazol-1-yl)piperidin-1-yl)ethyl)piperazin-1-yl)phenyl)-3-methylpiperidine-2,6-dione] | 64
Cc1cc(-c2cnc(Nc3cnn(C4CCN(CCN5CCN(c6ccc(C7CCC(=O)NC7=O)cc6)C[C@H]5C)CC4)c3)c3nccn23)c(F)cc1F (stereo partly drawn) [Compound 9, 3-(4-((R)-4-(2-(4-(4-((5-(2,4-difluoro-5-methylphenyl)imdazo [1,2-a]pyrazin-8-yl)amino)-1H-pyrazol-1-yl)piperidin-1-yl)ethyl)-3-methylpiperazin-1-yl)phenyl) piperidine-2,6-dione] | 14
O=C1CCC(c2ccc(N3CCN(CCN4CCC(n5cc(Nc6ncc(-c7ccc(F)cc7)n7ccnc67)cn5)CC4)CC3)cc2)C(=O)N1 (centres unmarked) [Compound 74, 3-(4-(4-(2-(4-(4-((5-(4-fluorophenyl)imidazo [1,2-a]pyrazin-8-yl)amino)-1H-pyrazol-1-yl)piperidin-1-yl)ethyl)piperazin-1-yl)phenyl) piperidine-2,6-dione] | 9.8
Cc1cc(-c2cnc(Nc3cnn([C@H]4CCN(CCN5CCN(c6ccc(C7CCC(=O)NC7=O)cc6)C[C@H]5C)[C@@H](C)C4)c3)c3nccn23)c(F)cc1F (stereo partly drawn) [Compound 35, 3-(4-((R)-4-(2-((2S,4S)-4-(4-((5-(2,4-difluoro-5-methylphenyl)imdazo [1,2-a]pyrazin-8-yl)amino)-1H-pyrazol-1-yl)-2-methylpiperidin-1-yl)ethyl)-3-methylpiperazin-1-yl)phenyl) piperidine-2,6-dione] | 7.6
Cc1cc(-c2cnc(Nc3cnn(C4CCN(CCN5[C@H](C)CN(c6ccc(C7CCC(=O)NC7=O)cc6)C[C@@H]5C)CC4)c3)c3nccn23)c(F)cc1F (stereo partly drawn) [Compound 13, 3-(4-((3S,5R)-4-(2-(4-(4-((5-(2,4-difluoro-5-methylphenyl)imdazo [1,2-a]pyrazin-8-yl)amino)-1H-pyrazol-1-yl)piperidin-1-yl)ethyl)-3,5-dimethylpiperazin-1-yl)phenyl) piperidine-2,6-dione] | 11
